This is an account of results in patent US20040142952A1, “Triazoloquinazoline and pyrazolotriazolopyrimidine derivatives, medicinal compositions, adenosine a3 receptor affinity agents, ocular tension lowering agents, preparations for preventing and treating glaucoma and method of lowering ocular tension” (priority 2001, published 2004).

As to `CCc1nc2ccc(Cl)cc2c2nc(-c3ccc(Cl)cc3)nn12` [Example 86, 9-chloro-2-(4-chlorophenyl)-5-ethyl-1,2,4-triazolo[1,5-c]quinazoline], the melting point (commonly the temperature, or range, at which the solid turns liquid) lay within 213 to 214 °C. `CCCCCCc1nc2nncc-2c2nc(-c3ccccc3)[nH]n12` [Example 88, 5-n-hexyl-2-phenylpyrazolo[4,3-e]-1,2,4-triazolo[1,5-c]pyrimidine] returned a melting point of 207 to 208 °C.

As for `COC(=O)CCCc1nc2nncc-2c2nc(-c3ccc(OC)cc3)[nH]n12` [Example 90, methyl 4-[2-(4-methoxyphenyl)pyrazolo[4,3-e]-1,2,4-triazolo[1,5-c]pyrimidin-5-yl]butyrate], the melting point lay in the range of 187.5 to 188.5 °C. With `COC(=O)CCCc1nc2nncc-2c2nc(-c3ccc(Cl)cc3)[nH]n12` [Example 91, methyl 4-[2-(4-chlorophenyl)pyrazolo[4,3-e]-1,2,4-triazolo[1,5-c]pyrimidin-5-yl]butyrate], the melting point lay in the range of 194.5 to 196.5 °C. Next, `COC(=O)CCCc1nc2nncc-2c2nc(-c3ccc(C)cc3)[nH]n12` [Example 92, methyl 4-[2-(4-methylphenyl)pyrazolo[4,3-e]-1,2,4-triazolo[1,5-c]pyrimidin-5-yl]butyrate]: 196.5 to 197 °C. `CCCCCc1nc2ccccc2c2nc(-c3ccccc3)nn12` [Example 93, 5-n-pentyl-2-phenyl-1,2,4-triazolo[1,5-c]quinazoline] yielded a melting point of 118 to 118.5 °C. For `CCCCCCc1nc2ccccc2c2nc(-c3ccccc3)nn12` [Example 94, 5-n-hexyl-2-phenyl-1,2,4-triazolo[1,5-c]quinazoline], the melting point was 92 to 93 °C. Compound `CCCCCc1nc2ccccc2c2nc(-c3ccc(F)cc3)nn12` [Example 95, 2-(4-fluorophenyl)-5-n-pentyl-1,2,4-triazolo[1,5-c]quinazoline] showed a melting point of 133.5 to 134 °C. `COC(=O)CCCc1nc2ccccc2c2nc(-c3ccccc3)nn12` [Example 96, methyl 4-(2-phenyl-1,2,4-triazolo[1,5-c]quinazolin-5-yl)butyrate] registered a melting point of 118.5 to 119.5 °C. In the case of `COC(=O)CCCc1nc2ccccc2c2nc(-c3ccc(Br)cc3)nn12` [Example 97, methyl 4-[2-(4-bromophenyl)-1,2,4-triazolo[1,5-c]quinazolin-5-yl]butyrate] it was 125 to 126 °C.

For the compound `COC(=O)CCCc1nc2ccccc2c2nc(-c3ccc(F)cc3)nn12` [Example 98, methyl 4-[2-(4-fluorophenyl)-1,2,4-triazolo[1,5-c]quinazolin-5-yl]butyrate], the melting point lay within 167 to 168 °C. Next, `COC(=O)CCCc1nc2ccccc2c2nc(-c3ccc(Cl)cc3)nn12` [Example 99, methyl 4-[2-(4-chlorophenyl)-1,2,4-triazolo[1,5-c]quinazolin-5-yl]butyrate]: 128 to 129 °C; `COC(=O)CCCc1nc2ccccc2c2nc(-c3ccc(C)cc3)nn12` [Example 100, methyl 4-[2-(4-methylphenyl)-1,2,4-triazolo[1,5-c]quinazolin-5-yl]butyrate]: 120.5 to 121.5 °C. `CCCCCc1nc2ccccc2c2nc(-c3ccc(C)cc3)nn12` [Example 101, 2-(4-methylphenyl)-5-n-pentyl-1,2,4-triazolo[1,5-c]quinazoline]: the melting point is 129.5 to 131 °C. The compound `CCCCCc1nc2ccccc2c2nc(-c3ccc(Br)cc3)nn12` [Example 102, 2-(4-bromophenyl)-5-n-pentyl-1,2,4-triazolo[1,5-c]quinazoline] gave a melting point of 133 to 134 °C. Compound `CCCCCc1nc2ccccc2c2nc(-c3ccc(Cl)cc3)nn12` [Example 103, 2-(4-chlorophenyl)-5-n-pentyl-1,2,4-triazolo[1,5-c]quinazoline] returned a melting point of 118 to 119.5 °C.

Turning to `COC(=O)CCCc1nc2ccc(Cl)cc2c2nc(-c3ccc(Cl)cc3)nn12` [Example 104, methyl 4-[9-chloro-2-(4-chlorophenyl)-1,2,4-triazolo[1,5-c]quinazolin-5-yl]butyrate], the melting point fell in the range of 145 to 146.5 °C. The compound `CCCCCc1nc2ccccc2c2nc(-c3ccc(OC)cc3)nn12` [Example 105, 2-(4-methoxyphenyl)-5-n-pentyl-1,2,4-triazolo[1,5-c]quinazoline] displayed a melting point of 123 to 125 °C. `CCCCCc1nc2ccccc2c2nc(-c3ccc(OCC)cc3)nn12` [Example 106, 2-(4-ethoxyphenyl)-5-n-pentyl-1,2,4-triazolo[1,5-c]quinazoline] came in with a melting point of 116 to 117 °C. For the compound `CCCCc1nc2c(cnn2C)c2nc(-c3ccccc3)nn12` [Example 110, 5-n-butyl-7-methyl-2-phenylpyrazolo[4,3-e]-1,2,4-triazolo[1,5-c]pyrimidine], the melting point lay within 172 to 173 °C.

Regarding `CCCCc1nc2nn(C)cc2c2nc(-c3ccccc3)nn12` [Example 111, 5-n-butyl-8-methyl-2-phenylpyrazolo[4,3-e]-1,2,4-triazolo[1,5-c]pyrimidine], the melting point fell in the range of 184 to 185 °C. Consider `CCCCc1nc2c(cnn2CCC)c2nc(-c3ccccc3)nn12` [Example 112, 5-n-butyl-2-phenyl-7-n-propylpyrazolo[4,3-e]-1,2,4-triazolo[1,5-c]pyrimidine], for which the melting point was 100.5 to 101.5 °C. Compound `CCCCc1nc2nn(CCC)cc2c2nc(-c3ccccc3)nn12` [Example 113, 5-n-butyl-2-phenyl-8-n-propylpyrazolo[4,3-e]-1,2,4-triazolo[1,5-c]pyrimidine] registered a melting point of 107 to 108 °C.

For the compound `CCCCc1nc2c(cnn2CC)c2nc(-c3ccccc3)nn12` [Example 114, 5-n-butyl-7-ethyl-2-phenylpyrazolo[4,3-e]-1,2,4-triazolo[1,5-c]pyrimidine], the melting point lay within 146 to 147 °C. Next, `CCCCc1nc2nn(CC)cc2c2nc(-c3ccccc3)nn12` [Example 115, 5-n-butyl-8-ethyl-2-phenylpyrazolo[4,3-e]-1,2,4-triazolo[1,5-c]pyrimidine]: 122.5 to 123 °C; `CCCCc1nc2c(cnn2Cc2ccccc2)c2nc(-c3ccccc3)nn12` [Example 116, 7-benzyl-5-n-butyl-2-phenylpyrazolo[4,3-e]-1,2,4-triazolo[1,5-c]pyrimidine]: 108 to 109 °C. In the case of `CCCCc1nc2nn(Cc3ccccc3)cc2c2nc(-c3ccccc3)nn12` [Example 117, 8-benzyl-5-n-butyl-2-phenylpyrazolo[4,3-e]-1,2,4-triazolo[1,5-c]pyrimidine] it was 159 to 160 °C; in that of `CCCCc1nc2c(cnn2C)c2nc(-c3ccc(Cl)cc3)nn12` [Example 118, 2-(4-chlorophenyl)-5-n-butyl-7-methylpyrazolo[4,3-e]-1,2,4-triazolo[1,5-c]pyrimidine], 147.5 to 148.5 °C.

Consider `CCCCc1nc2nn(C)cc2c2nc(-c3ccc(Cl)cc3)nn12` [Example 119, 2-(4-chlorophenyl)-5-n-butyl-8-methylpyrazolo[4,3-e]-1,2,4-triazolo[1,5-c]pyrimidine], for which the melting point lay within 203.5 to 205 °C. In turn, `CCCCc1nc2c(cnn2C)c2nc(-c3ccc(C)cc3)nn12` [Example 120, 5-n-butyl-7-methyl-2-(4-methylphenyl)pyrazolo[4,3-e]-1,2,4-triazolo[1,5-c]pyrimidine] came in with a melting point of 156 to 157 °C. `CCCCc1nc2nn(C)cc2c2nc(-c3ccc(C)cc3)nn12` [Example 121, 5-n-butyl-8-methyl-2-(4-methylphenyl)pyrazolo[4,3-e]-1,2,4-triazolo[1,5-c]pyrimidine] gave a melting point of 180 to 181 °C. `CCCCc1nc2c(cnn2CCC)c2nc(-c3ccc(C)cc3)nn12` [Example 122, 5-n-butyl-2-(4-methylphenyl)-7-n-propylpyrazolo[4,3-e]-1,2,4-triazolo[1,5-c]pyrimidine] returned a melting point of 113 to 113.5 °C. `CCCCc1nc2nn(CCC)cc2c2nc(-c3ccc(C)cc3)nn12` [Example 123, 5-n-butyl-2-(4-methylphenyl)-8-n-propylpyrazolo[4,3-e]-1,2,4-triazolo[1,5-c]pyrimidine] gave a melting point of 101.5 to 103.5 °C. `CCCCc1nc2c(cnn2CCC)c2nc(-c3ccc(F)cc3)nn12` [Example 124, 5-n-butyl-2-(4-fluorophenyl)-7-n-propylpyrazolo[4,3-e]-1,2,4-triazolo[1,5-c]pyrimidine] came in with a melting point of 105.5 to 106 °C. Take `CCCCc1nc2nn(CCC)cc2c2nc(-c3ccc(F)cc3)nn12` [Example 125, 5-n-butyl-2-(4-fluorophenyl)-8-n-propylpyrazolo[4,3-e]-1,2,4-triazolo[1,5-c]pyrimidine]: the melting point was 106.5 to 107.5 °C. In the case of `CCCCc1nc2c(cnn2CCC)c2nc(-c3ccc(Cl)cc3)nn12` [Example 126, 5-n-butyl-2-(4-chlorophenyl)-7-n-propylpyrazolo[4,3-e]-1,2,4-triazolo[1,5-c]pyrimidine] it was 131.5 to 132 °C. The compound `CCCCc1nc2nn(CCC)cc2c2nc(-c3ccc(Cl)cc3)nn12` [Example 127, 5-n-butyl-2-(4-chlorophenyl)-8-n-propylpyrazolo[4,3-e]-1,2,4-triazolo[1,5-c]pyrimidine] had a melting point of 137 to 138 °C. Compound `CCCCc1nc2c(cnn2CC(=O)OCC)c2nc(-c3ccccc3)nn12` [Example 128, ethyl 2-(5-n-butyl-2-phenylpyrazolo[4,3-e]-1,2,4-triazolo[1,5-c]pyrimidin-7-yl)acetate] returned a melting point of 131.5 to 132.5 °C. `CCCCc1nc2nn(CC(=O)OCC)cc2c2nc(-c3ccccc3)nn12` [Example 129, ethyl 2-(5-n-butyl-2-phenylpyrazolo[4,3-e]-1,2,4-triazolo[1,5-c]pyrimidin-8-yl)acetate] displayed a melting point of 136 to 137 °C. On to `CCCCc1nc2c(cnn2CC(=O)OCC)c2nc(-c3ccc(F)cc3)nn12` [Example 130, ethyl 2-[5-n-butyl-2-(4-fluorophenyl)pyrazolo[4,3-e]-1,2,4-triazolo[1,5-c]pyrimidin-7-yl]acetate], for which the melting point fell in the range of 139.5 to 140.5 °C.
